# Laboratory results reported in ChEMBL document CHEMBL4411258, “Novel natural compounds from endophytic fungi with anticancer activity” (Eur J Med Chem, 2018).
# Experiments:
# HL-60 [1] = experiment: Cytotoxicity against human HL60 cells by trypan blue staining based assay; format: functional, cell-based
# HL-60 [2] = experiment: Cytotoxicity against human HL60 cells by MTT assay; format: functional, cell-based
# [3] = Inhibition of RANKL-induced NFkappaB (unknown origin) activation expressed in mouse RAW264.7 cells preincubated for 1 hr followed by RANKL stimulation and measured after 6 hrs by luciferase reporter gene based assay; format: cell-based
# A549 [4] = experiment: Cytotoxicity against human A549 cells by MTS assay; format: functional, cell-based
# NCI-H446 = experiment: Cytotoxicity against human NCI-H446 cells by MTS assay; format: functional, cell-based
# HeLa = experiment: Cytotoxicity against human HeLa cells by MTS assay; format: functional, cell-based
# Huh-7 = experiment: Cytotoxicity against human HuH7 cells by MTS assay; format: functional, cell-based
# L02 = experiment: Cytotoxicity against human L02 cells by MTS assay; format: cell-based
# [5] = Cytotoxicity against mouse LM3 cells by MTS assay; format: functional, cell-based
# MCF7 = experiment: Cytotoxicity against human MCF7 cells by MTS assay; format: functional, cell-based
# SW1990 = experiment: Cytotoxicity against human SW1990 cells by MTS assay; format: functional, cell-based
# MDA-MB-435 [6] = experiment: Cytotoxicity against human MDA-MB-435 cells by MTT assay; format: functional, cell-based
# SGC-7901 = experiment: Cytotoxicity against human SGC7901 cells by MTT assay; format: functional, cell-based
# A549 [7] = experiment: Cytotoxicity against human A549 cells by MTT assay; format: functional, cell-based
# [8] = molecular target: Polyunsaturated fatty acid 5-lipoxygenase (Homo sapiens) (UniProt P09917); experiment: Inhibition of 5-LOX (unknown origin) at 30 ug/ml relative to control
# KB = experiment: Cytotoxicity against human KB cells by MTT assay; format: functional, cell-based
# A2780 [9] = experiment: Cytotoxicity against human A2780 cells after 72 hrs by MTT assay; format: functional, cell-based; conditions: A2780, 72 h
# HepG2 [10] = experiment: Cytotoxicity against human HepG2 cells after 24 hrs by MTT assay; format: functional, cell-based; conditions: HepG2, 24 h
# BT-549 = experiment: Cytotoxicity against human BT549 cells after 48 hrs by neutral red dye based assay; format: functional, cell-based; conditions: BT-549, 48 h
# SK-OV-3 = experiment: Cytotoxicity against human SKOV3 cells after 48 hrs by neutral red dye based assay; format: functional, cell-based; conditions: SK-OV-3, 48 h
# HepG2 [11] = experiment: Cytotoxicity against human HepG2 cells after 72 hrs by MTT assay; format: functional, cell-based; conditions: HepG2, 72 h
# MDA-MB-435 [12] = experiment: Cytotoxicity against human MDA-MB-435 cells after 72 hrs by MTT assay; format: functional, cell-based; conditions: MDA-MB-435, 72 h
# HCT-116 = experiment: Cytotoxicity against human HCT116 cells after 72 hrs by MTT assay; format: functional, cell-based; conditions: HCT-116, 72 h
# A2780 [13] = experiment: Cytotoxicity against human A2780 cells by MTT assay; format: functional, cell-based
# RPMI-8226 = experiment: Cytotoxicity against human RPMI8226 cells after 48 hrs by MTT assay; format: functional, cell-based; conditions: RPMI-8226, 48 h
# NCI-H187 = experiment: Cytotoxicity against human NCI-H187 cells by resazurin microplate assay; format: functional, cell-based
# Vero = experiment: Cytotoxicity against African green monkey Vero cells by resazurin microplate assay; format: cell-based; conditions: Chlorocebus sabaeus
# T47D = experiment: Cytotoxicity against human T47D cells after 48 hrs by MTT assay; format: functional, cell-based
# [14] = Inhibition of TNFalpha-induced NFkappaB (unknown origin) activation expressed in HEK293 cells preincubated for 1 hr followed by TNFalpha stimulation and measured after 1 hr by dual luciferase reporter gene assay; format: cell-based; conditions: Homo sapiens
# MOLT-3 = experiment: Cytotoxicity against human MOLT3 cells by XTT assay; format: functional, cell-based
# Chain of Polyunsaturated fatty acid 5-lipoxygenase (Homo sapiens) (P09917 whole entry): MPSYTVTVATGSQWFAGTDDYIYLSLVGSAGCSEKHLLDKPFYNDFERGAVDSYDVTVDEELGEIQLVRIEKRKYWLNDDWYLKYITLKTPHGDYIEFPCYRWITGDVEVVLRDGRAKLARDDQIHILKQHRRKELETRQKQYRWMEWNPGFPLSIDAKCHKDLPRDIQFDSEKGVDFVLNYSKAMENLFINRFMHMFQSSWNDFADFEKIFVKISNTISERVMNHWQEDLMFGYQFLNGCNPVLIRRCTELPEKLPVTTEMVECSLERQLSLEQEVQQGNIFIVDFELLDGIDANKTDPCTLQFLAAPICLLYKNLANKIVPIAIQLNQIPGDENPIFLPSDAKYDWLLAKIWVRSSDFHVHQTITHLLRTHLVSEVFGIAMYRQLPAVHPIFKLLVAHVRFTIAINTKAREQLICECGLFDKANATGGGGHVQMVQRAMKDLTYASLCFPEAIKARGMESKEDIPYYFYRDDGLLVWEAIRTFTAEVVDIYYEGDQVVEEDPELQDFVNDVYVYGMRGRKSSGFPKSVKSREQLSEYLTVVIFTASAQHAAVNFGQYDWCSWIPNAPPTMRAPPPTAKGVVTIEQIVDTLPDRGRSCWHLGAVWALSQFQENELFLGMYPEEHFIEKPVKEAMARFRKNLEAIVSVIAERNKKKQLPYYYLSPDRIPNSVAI
smiles,measurement,setting,value
O=C1CC[C@]2(C[C@@H](O)C(=O)O2)c2cccc(O)c21,IC50,HL-60 [1],29.1 µM
COC1=C2c3cc(OC)cc(O)c3C(=O)O[C@@]2(C)CC1=O,IC50,HL-60 [2],> 200 µM
COC(=O)c1cc(OC)cc2c1C(=O)[C@H]([C@@H](O)CC(C)=O)CO2,IC50,[3],30 to 46 µM
CC(C)=CCCC(C)(O)[C@H]1CC[C@@]2(C)OC3=C(C[C@@H]12)C(=O)[C@@H](O)CC3 (some centres not stated),IC50,HL-60 [1],32.5 µM
CO[C@H]1CCC(=O)c2c([C@@H]3CCC(=O)c4c(O)cccc43)ccc(O)c21,IC50,A549 [4],1 to 20 µM
same,IC50,NCI-H446,1 to 20 µM
same,IC50,HeLa,1 to 20 µM
same,IC50,Huh-7,1 to 20 µM
same,IC50,L02,1 to 20 µM
same,IC50,[5],1 to 20 µM
same,IC50,MCF7,1 to 20 µM
same,IC50,SW1990,1 to 20 µM
CC1=C[C@@H]2/C=C/C[C@H](C)/C=C(\C)CC(=O)/C=C/C(=O)[C@]23C(=O)N[C@@H](Cc2c[nH]c4ccccc24)[C@@H]3[C@@H]1C [PROCHEATOGLOBOSIN II],IC50,MDA-MB-435 [6],36.9 µM
same,IC50,SGC-7901,37.7 µM
same,IC50,A549 [7],35.9 µM
CCCCC(O)/C=C/C1=C(CO)[C@@H](O)[C@@H](O)[C@](Cl)(C/C=C(\C)C(=O)O)C1=O (some centres not stated),inhibition,[8],48.3%
C=C(CO)C(=O)CCC(C)C1=CC[C@@]2(C)OC3=C(C[C@@H]12)C(=O)[C@@H](O)CC3 (some centres not stated),IC50,HL-60 [1],4.81 µM
CC1=C(C)C2=CC(=O)C3=C(C(=O)c4oc(C)cc4C3=O)[C@@]2(C)CC1=O,IC50,HL-60 [2],12.5 µM
COC(=O)c1cc(OC)cc(OC)c1C(=O)c1coc2c1OC(C)CC2=O (configuration not stated),IC50,KB,4.7 µM
COC(=O)c1cc(OC)cc2c1C(=O)[C@@H]([C@@H](O)CC(C)=O)CO2,IC50,[3],30 to 46 µM
O=C1N[C@@]2(Cc3ccccc3O2)C(=O)N/C1=C\c1ccccc1O,IC50,A2780 [9],59 µM
CCCCC/C=C/C1=C(CO)[C@@H](O)[C@H]2O[C@@]2(C/C=C(\C)C(=O)O)[C@H]1O,inhibition,[8],67.4%
CC(=O)OC(CC=C(C)C)C[C@@]1(C)CCC[C@H]2[C@@]3(C)C=CC(=O)[C@@H](C)[C@@H]3[C@H](OC(C)=O)C(=O)[C@@]21C (some centres not stated),IC50,HepG2 [10],140 µM
COc1ccc2c3c([nH]c2c1)C(C=C(C)C)N1C(=O)C2CCCN2C(=O)C1(OC)C3OC(=O)c1cc(O)cc(OC)c1C(=O)c1c(O)cc(C)cc1OC (configuration not stated),IC50,HepG2 [10],47.5 µM
C[C@@H](N)C(=O)Nc1ccccc1C(=O)N[C@@H](O)CCS,IC50,BT-549,0.4 µM
same,IC50,SK-OV-3,0.8 µM
O=C1CC[C@@H](c2ccc(O)c3c2C(=O)CC[C@H]3O)c2cccc(O)c21,IC50,A549 [4],1 to 20 µM
same,IC50,NCI-H446,1 to 20 µM
same,IC50,HeLa,1 to 20 µM
same,IC50,Huh-7,1 to 20 µM
same,IC50,L02,1 to 20 µM
same,IC50,[5],1 to 20 µM
same,IC50,MCF7,1 to 20 µM
same,IC50,SW1990,1 to 20 µM
O=Cc1cc(/C=C/c2cc(O)cc(O)c2)ccc1O,IC50,HepG2 [11],< 50 µM
same,IC50,MDA-MB-435 [12],< 50 µM
same,IC50,HCT-116,< 50 µM
C/C=C(\C)[C@H]1[C@@H](/C=C/C=C(\C)[C@@H](O)[C@@H](C)C(C)O)[C@@H]2C[C@@H](OC(=O)Cc3ccccc3)[C@](C)(O)C[C@H]2[C@@H]2O[C@@]21C (some centres not stated),IC50,A2780 [13],12.5 µM
CO[C@H]1C[C@H](O)C2=C(C[C@H]3C(=C(C)C)CC[C@@]3(C)O2)C1=O,IC50,RPMI-8226,92.1 µM
C[C@@H]1CC[C@@H]2[C@H](C=C[C@H]3[C@H](/C=C/[C@H](C)O)OC(=O)[C@@]23C)C1,IC50,NCI-H187,17.8 µg/mL
same,IC50,Vero,31.5 µg/mL
CCCC[C@H](C)/C=C(C)/C=C/C(=O)O,IC50,T47D,1 to 10 µM
CO[C@]12OC[C@@H](C)[C@H]1C[C@]1(C)[C@@H](C)CC[C@H](O)[C@@]13O[C@@H]23,IC50,[14],19.2 µM
CC1=C[C@@H]2/C=C/C[C@H](C)/C=C(\C)[C@@H](O)C(=O)/C=C/C(=O)[C@]23C(=O)N[C@H]2Cc4c([nH]c5ccccc45)[C@@]1(C)[C@@H]23,IC50,MDA-MB-435 [6],7.55 µM
same,IC50,SGC-7901,7.32 µM
same,IC50,A549 [7],16.1 µM
C/C(=C\C=C\[C@H](O)[C@@H](C)O)[C@H](O)[C@H](C)C(=O)O[C@H]1C[C@H](C)C[C@@H]2C=C[C@H](C)[C@](C)(C(=O)CCO)[C@@H]12,IC50,MOLT-3,37.3 µg/mL
